Our source for the IC50 values is ChEMBL document CHEMBL4840375, “Ring A/B-Modified 17β-Hydroxywithanolide Analogues as Antiproliferative Agents for Prostate Cancer and Potentiators of Immunotherapy for Renal Carcinoma and Melanoma” (J Nat Prod, 2021).

One assay relates to ACHN. Description: Antiproliferative activity against human ACHN cells assessed as inhibition of cell proliferation incubated for 72 hrs by MTT assay. Type of assay: functional, cell-based.
The next assay concerns LNCaP. Description: Antiproliferative activity against human LNCaP cells assessed as inhibition of cell proliferation incubated for 72 hrs by MTT assay. Type of assay: functional, cell-based. On the technique in general: Tetrazolium assays rely on reduction of a dye to a coloured formazan, in cell work by metabolically active cells.
For a further assay, the system named is HFF. Kind of assay: Cytotoxicity against human HFF cells assessed as reduction in cell viability incubated for 72 hrs by MTT assay. It counts as cell-based.
For assay [1], the system named is M14. Description: Antiproliferative activity against human M14 cells assessed as inhibition of cell proliferation incubated for 72 hrs by MTT assay. It counts as functional, cell-based. The settings on record: M14, 72 h.
For assay [2], the system named is SK-MEL-28. Description: Antiproliferative activity against human SK-MEL-28 cells assessed as inhibition of cell proliferation incubated for 72 hrs by MTT assay. Type of assay: functional, cell-based. Particulars: SK-MEL-28, 72 h.
The next assay relates to CWR22R. Kind of assay: Antiproliferative activity against human 22Rv1 cells assessed as inhibition of cell proliferation incubated for 72 hrs by MTT assay. Type of assay: functional, cell-based. The settings on record: 22Rv1, 72 h.
Assay [3] concerns M14. Description: Antiproliferative activity against human M14 cells assessed as inhibition of cell proliferation incubated for 48 hrs by MTT assay. The settings on record: M14, 48 h. Type of assay: functional, cell-based.
For assay [4], the system named is SK-MEL-28. Description: Potentiation of poly I:C-induced antiproliferative activity against human SK-MEL-28 cells assessed as reduction in cell numbers by measuring IC50 pretreated with compound for 2 hrs followed by poly I:C addition and measured after 48 hrs by MTT assay. Type of assay: functional, cell-based.
Assay [5] concerns SK-MEL-28. Description: Antiproliferative activity against human SK-MEL-28 cells assessed as inhibition of cell proliferation incubated for 48 hrs by MTT assay. It counts as functional, cell-based. The settings on record: SK-MEL-28, 48 h.
For assay [6], the system named is M14. Description: Potentiation of poly I:C-induced antiproliferative activity against human M14 cells assessed as reduction in cell numbers by measuring IC50 pretreated with compound for 2 hrs followed by poly I:C addition and measured after 48 hrs by MTT assay. Type of assay: functional, cell-based.

For `CC(=O)OC[C@]12CC[C@H]3[C@@H](CC=C4CCCC(=O)[C@@]43C)[C@@]1(O)CC[C@@]2(O)[C@@](C)(O)C1CC(C)=C(C)C(=O)O1` (some centres undefined), the IC50 in the assay on ACHN, in the assay with LNCaP, with HFF, in the assay on M14 [1], in the assay on SK-MEL-28 [2] and in the assay with CWR22R was more than 5 µM throughout.

For the molecule `CC(=O)OC[C@]12CC[C@H]3[C@@H](CC=C4[C@@H](OC(C)=O)C=CC(=O)[C@@]43C)[C@]1(O)CC[C@@]2(O)[C@@](C)(O)C1CC(C)=C(C)C(=O)O1` (some centres undefined), the concentration for half-maximal inhibition (IC50) (usually the midpoint of a concentration-inhibition curve) in the assay on LNCaP was determined as 0.68 µM; with HFF, 2.69 µM; with M14 [1], 1.43 µM; in the assay on CWR22R it was 0.13 µM.

Regarding `CC(=O)OC[C@]12CC[C@H]3[C@@H](C[C@@H](O)C4=CC=CC(=O)[C@@]43C)[C@]1(O)CC[C@@]2(O)[C@@](C)(O)C1CC(C)=C(C)C(=O)O1` (some centres undefined), the IC50 in the assay with ACHN is more than 5 µM; in the assay with LNCaP, 2.96 µM; in the assay on HFF it was more than 5 µM; in the assay on M14 [1], more than 5 µM; with SK-MEL-28 [2], more than 5 µM; in the assay on CWR22R it was 1.89 µM.

For `CC(=O)OC[C@]12CC[C@H]3[C@@H](C[C@H](O)C4=CC=CC(=O)[C@@]43C)[C@]1(O)CC[C@@]2(O)[C@@](C)(O)C1CC(C)=C(C)C(=O)O1` (some centres undefined), the half-maximal inhibitory concentration (IC50) with ACHN, with LNCaP, with HFF, in the assay with M14 [1], in the assay with SK-MEL-28 [2] and with CWR22R was more than 5 µM each time.

In the case of `CC(=O)OC[C@]12CC[C@H]3[C@@H](C[C@H]4O[C@]45C(=O)C=CC(=O)[C@]35C)[C@]1(O)CC[C@@]2(O)[C@@](C)(O)C1CC(C)=C(C)C(=O)O1` (some centres undefined), the 50% inhibitory concentration (IC50) with ACHN, with LNCaP, with HFF, in the assay on M14 [1], with SK-MEL-28 [2] and with CWR22R was more than 5 µM each time.

Consider `CC(=O)OC[C@]12CC[C@H]3[C@@H](CC=C4C=CCC(=O)[C@@]43C)[C@]1(O)CC[C@@]2(O)[C@@](C)(O)C1CC(C)=C(C)C(=O)O1` (some centres undefined), for which the IC50 is more than 5 µM in the assay on ACHN; more than 5 µM with M14 [3]; 4.49 µM with SK-MEL-28 [4]; more than 5 µM in the assay on HFF; more than 5 µM in the assay on SK-MEL-28 [5]; more than 5 µM in the assay on M14 [1]. In addition, the results for the 50% inhibitory concentration (IC50) with SK-MEL-28 [2], in the assay with M14 [6] and in the assay on CWR22R were more than 5 µM, more than 5 µM and 0.97 µM, respectively.

Take `CC(=O)OC[C@]12CC[C@H]3[C@@H](C[C@H](OC(C)=O)[C@]45O[C@H]4C=CC(=O)[C@]35C)[C@]1(O)CC[C@@]2(O)[C@@](C)(O)C1CC(C)=C(C)C(=O)O1` (some centres undefined): the IC50 in the assay on ACHN is more than 5 µM; in the assay on LNCaP, more than 5 µM; with HFF, more than 5 µM; in the assay on M14 [1], more than 5 µM; in the assay with SK-MEL-28 [2], more than 5 µM; with CWR22R, 3.08 µM.

Regarding `CC(=O)OC[C@]12CC[C@H]3[C@@H](CC=C4[C@@H](O)C=CC(=O)[C@@]43C)[C@]1(O)CC[C@@]2(O)[C@@](C)(O)C1CC(C)=C(C)C(=O)O1` (some centres undefined), the IC50 with LNCaP is 0.35 µM; in the assay with HFF, more than 5 µM; in the assay on M14 [1] it was 0.45 µM; in the assay with CWR22R, 0.08 µM.

On to `CC(=O)OC[C@]12CC[C@H]3[C@@H](C[C@@H]4O[C@@]45CC=CC(=O)[C@]35C)[C@]1(O)CC[C@@]2(O)[C@@](C)(O)C1CC(C)=C(C)C(=O)O1` (some centres undefined), for which the IC50 in the assay with ACHN was more than 5 µM; with M14 [3], more than 5 µM; in the assay on SK-MEL-28 [4] it was 4.56 µM; in the assay on HFF, more than 5 µM; with SK-MEL-28 [5] it was more than 5 µM; in the assay on M14 [1], more than 5 µM. For the same molecule, the figures for the 50% inhibitory concentration (IC50) with SK-MEL-28 [2], in the assay on M14 [6] and in the assay on CWR22R were more than 5 µM, more than 5 µM and 0.58 µM, respectively.

Consider `CC(=O)OC[C@]12CC[C@H]3[C@@H](C[C@@H](O)[C@]45O[C@H]4C=CC(=O)[C@]35C)[C@]1(O)CC[C@@]2(O)[C@@](C)(O)C1CC(C)=C(C)C(=O)O1` (some centres undefined), for which the IC50 in the assay with ACHN, with LNCaP, in the assay on HFF, in the assay on M14 [1], with SK-MEL-28 [2] and in the assay on CWR22R was more than 5 µM in each case.

As for `CC(=O)OC[C@]12CC[C@H]3[C@@H](C[C@@H](OC(C)=O)[C@]45O[C@H]4C=CC(=O)[C@]35C)[C@]1(O)CC[C@@]2(O)[C@@](C)(O)C1CC(C)=C(C)C(=O)O1` (some centres undefined), the 50% inhibitory concentration (IC50) is more than 5 µM in the assay with ACHN; more than 5 µM with LNCaP; more than 5 µM in the assay on HFF; more than 5 µM in the assay on M14 [1]; more than 5 µM in the assay with SK-MEL-28 [2]; 1.37 µM in the assay with CWR22R.

For `CC(=O)OC[C@]12CC[C@H]3[C@@H](C[C@H](OC(C)=O)C4=CC=CC(=O)[C@@]43C)[C@]1(O)CC[C@@]2(O)[C@@](C)(O)C1CC(C)=C(C)C(=O)O1` (some centres undefined), the IC50 is more than 5 µM with ACHN; 2 µM with LNCaP; more than 5 µM in the assay on HFF; more than 5 µM in the assay with M14 [1]; more than 5 µM in the assay on SK-MEL-28 [2]; 1.14 µM in the assay on CWR22R.

Regarding `CC(=O)OC[C@]12CC[C@H]3[C@@H](C[C@@H](OC(C)=O)C4=CC=CC(=O)[C@@]43C)[C@]1(O)CC[C@@]2(O)[C@@](C)(O)C1CC(C)=C(C)C(=O)O1` (some centres undefined), the IC50 with ACHN is more than 5 µM; in the assay with LNCaP, 1 µM; with HFF, more than 5 µM; in the assay on M14 [1], more than 5 µM; in the assay on SK-MEL-28 [2], more than 5 µM; with CWR22R, 0.63 µM.

For the molecule `CC(=O)OC[C@]12CC[C@H]3[C@@H](CC(=O)[C@]45O[C@H]4C=CC(=O)[C@]35C)[C@]1(O)CC[C@@]2(O)[C@@](C)(O)C1CC(C)=C(C)C(=O)O1` (some centres undefined), the IC50 with ACHN, with LNCaP, with HFF, in the assay with M14 [1], in the assay with SK-MEL-28 [2] and with CWR22R was more than 5 µM in each case.

In the case of `CC(=O)OC[C@]12CC[C@H]3[C@@H](C[C@H](O)[C@]45O[C@H]4C=CC(=O)[C@]35C)[C@]1(O)CC[C@@]2(O)[C@@](C)(O)C1CC(C)=C(C)C(=O)O1` (some centres undefined), the IC50 was more than 5 µM in the assay on ACHN; 0.53 µM with LNCaP; more than 5 µM in the assay on HFF; more than 5 µM in the assay with M14 [1]; more than 5 µM in the assay on SK-MEL-28 [2]; 0.25 µM in the assay on CWR22R.

As for `CC(=O)OC[C@]12CC[C@H]3[C@@H](C[C@H]4O[C@]45CCCC(=O)[C@]35C)[C@]1(O)CC[C@@]2(O)[C@@](C)(O)C1CC(C)=C(C)C(=O)O1` (some centres undefined), the IC50 in the assay with ACHN is more than 5 µM; in the assay with LNCaP, more than 5 µM; with HFF, more than 5 µM; with M14 [1], more than 5 µM; with SK-MEL-28 [2], more than 5 µM; in the assay with CWR22R it was 2.56 µM.

As for `COc1cccc2c1C(=O)c1c(O)c3c(c(O)c1C2=O)C[C@@](O)(C(=O)CO)C[C@@H]3O[C@H]1C[C@H](N)[C@H](O)[C@H](C)O1` [DOXORUBICIN], in the assay with HFF, the 50% inhibitory concentration (IC50) is 0.15 µM.
